Data from patent US20050226919A1, “Device for transdermal administration for the treatment of urinary tract disorders” (priority 2001, published 2005).

Tests used:
[1] = Skin permeation across human skin (in vitro penetration assay); assay type: in vitro ADME
Method: (§1) The skin permeation of KMD 3213 was also evaluated on hairless mouse skin and human skin. Human skin penetration assays were performed as described by Tanojo et al. in Journal of Controlled Release 45 (1997), 41-47. The concentration of KMD 3213 was measured by HPLC with a Symetry Shield RP-8, 3.9*150 mm 5 μm column; T=35° C.; eluent: water/acetonitrile/trifluoracetic acid 800/200/1 (v/v/v); dectetion UV at 225 nm; flux rate 1.5 ml/min; injection volume: 100 μl at 23° C.

[2] = Skin permeation across hairless mouse skin (horizontal diffusion cell); assay type: in vitro ADME
Method: as §1
The flux measurements on hairless mouse skin were conducted using a TTS area of 2.55 cm^2 fixed on mouse abdominal and back skin in a horizontal diffusion cell. Immediately thereafter the acceptor chamber of the cell was filled with phosphate buffer solution (0.066 molar) previously adjusted to 32±0.5° C. and pH 6.2, in an air-bubble free state, and the release medium thermostatted to 32±0.5° C. At the time of sampling (after 3, 6, 24 and 48 hours) the release medium is exchanged with fresh medium thermostatted at 32±0.5° C. KMD 3213 was measured with HPLC as explained above.

α1a-receptor = target: T1, α1a-receptor (Homo sapiens, UniProt P35348); conditions: Murata et al., Br. J. Pharmacol. (1999) 127, 19-26; cited from earlier work
T1 sequence (P35348 1-466): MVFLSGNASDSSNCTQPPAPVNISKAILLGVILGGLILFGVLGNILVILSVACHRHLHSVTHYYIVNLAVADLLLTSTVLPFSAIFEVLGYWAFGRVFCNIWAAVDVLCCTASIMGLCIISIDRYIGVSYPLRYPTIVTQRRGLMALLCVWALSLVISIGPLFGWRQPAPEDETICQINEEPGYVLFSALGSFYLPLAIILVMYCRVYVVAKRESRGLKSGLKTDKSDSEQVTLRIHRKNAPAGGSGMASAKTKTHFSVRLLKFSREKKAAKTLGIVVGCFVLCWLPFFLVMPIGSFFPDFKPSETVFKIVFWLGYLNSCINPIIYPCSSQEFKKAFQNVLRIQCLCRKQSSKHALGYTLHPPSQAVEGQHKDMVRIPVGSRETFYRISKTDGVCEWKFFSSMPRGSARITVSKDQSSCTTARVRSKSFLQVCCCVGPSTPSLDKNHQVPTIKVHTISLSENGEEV

steady state flux rate on human skin [1]: 2.9 mg/20 cm^2 per day
steady state skin permeation rate on hairless mouse skin ([2]; hairless mouse skin, TTS area 2.55 cm^2, phosphate buffer pH 6.2, 32°C): approximately 2.7 mg/20 cm^2 per day
steady state flux rate through mouse skin ([2]; mouse skin, from the devices of the invention): 2.7 mg/day
Structure (SMILES): C[C@H](Cc1cc2c(c(C(N)=O)c1)N(CCCO)CC2)NCCOc1ccccc1OCC(F)(F)F [KMD 3213, (-)-(R)-1-(3-hydroxypropyl)-5-[2-[[2-[2-(2,2,2-trifluoroethoxy)phenoxy]ethyl]amino]propyl]indoline-7-carboxamide]
α-adrenoceptor subtype specificity (α1a-receptor): binding specifically to the α1a-receptor
